Assay results: PMC10654779, “Development of a fibroblast activation protein-targeted PET/NIR dual-modality probe and its application in head and neck cancer” (Frontiers in Bioengineering and Biotechnology, 2023)
Each block holds one compound with its values, some of them ahead of it.

Legend:
U87MG cells [1] = test: Cellular retention by fluorescence imaging; type: cell-based, human; details: 3 μM (based on ICG), 37 °C, 24 h incubation, n = 5
Method: (§1) For the cellular uptake study, U87MG cells (2×10^5 cells/well) were seeded in 24-well plates and incubated at 37°C for 24 h before the experiments (five replicate wells per group). After removing the medium and washing the cells with fresh medium, the cells in each well were treated with DMEM medium containing 0.74 MBq [^68Ga]Ga-FAP-2286-ICG at 37°C for 30, 60, and 120 min. After removing the medium, the cells were washed twice with cold PBS, lysed with NaOH (1 M) twice (0.5 mL/well), and collected. The bound activity was measured with a γ-counter. For the blocking study, a 100-fold excess of the non-radiolabeled precursor was added before treating the cells with [^68Ga]Ga-FAP-2286-ICG. Subsequent experimental procedure and condition were the same as the aforementioned cellular uptake assay. To further verify whether the introduction of ICG affected the targeting of the precursor, [^68Ga]Ga-FAP-2286 was incubated with U87MG cells for 2 h as a control group. Additionally, the retention effect of probe on the tumor was verified. Briefly, U87MG cells were incubated with DMEM medium containing approximately 3 μM (based on the content of ICG) FAP-2286-ICG or ICG at 37 °C for 2, 4, 8, and 24 h. After discarding the medium, the cells were washed three times with PBS and imaged using a small animal FI system with ICG mode to quantify the fluorescent signal.

[2] = human; no reference given; cited from earlier work
Excerpt: Novel methodologies employing dual-labeled probes aid the surgeon by allowing for more streamlined preoperative planning via PET/CT or PET/MRI and accurate intraoperative navigation guidance.

U87MG xenografts [3] = test: NIR fluorescence imaging of U87MG tumor-bearing mice; type: in vivo; details: 0.5-72 h post-injection, n = 3
Method: FI was performed using a small animal FI system with ICG mode: The NIR filter set (Excitation: 740–790 nm; Emission: 810–860 nm) was used for ICG fluorescence. The fluorescence intensity was calculated by the mean fluorescence intensity (MFI).
To evaluate the optimal imaging time window, NIR fluorescence images of U87MG tumor-bearing mice were collected at different time points (0.5, 1, 2, 24, 48, and 72 h) post-injection of FAP-2286-ICG (3.16 μg, 1.37 nmol). Following in vivo FI, mice were euthanized, and their xenografts and major organs were harvested for in vitro FI analysis. The ROIs were drawn manually in the tumor and organs on the fluorescence image to account for the distribution of FAP-2286-ICG in the tissue. MFI levels from organs and the TBRs using tumor/muscle values were evaluated.

[4] = Optical properties (UV/Vis absorbance and fluorescence emission spectra); type: physicochemical; details: 10 μM in PBS, diluted from 1 mM DMSO
Method: The ultraviolet absorption spectra of FAP-2286-ICG were collected using a UV/Vis spectrophotometer (DU-730, BeckMan Coulter). Fluorescence spectra were collected using a fluorescence spectrometer (FLS980, Edinburgh instruments). FAP-2286-ICG and ICG were dissolved in DMSO at a concentration of 1 mM before being diluted with PBS to a final concentration of 10 μΜ, respectively. The absorbance spectra were taken between 600 and 1100 nm. The emission spectra were recorded in the 790–860 nm range at an excitation wavelength of 770 nm. The concentration dependence of fluorescence intensity of FAP-2286-ICG was assessed with different concentrations of FAP-2286-ICG (0–100 μM). The fluorescent images were collected using a small animal fluorescence imaging system (VISQUE InVivo Smart-LF, Vieworks Co., Ltd) and analyzed using CleVue™ software (Vieworks Co., Ltd).

in vivo = type: in vivo, mice; details: female, BALB/c nude, mouse, in vivo, iv, total radioactivity
Method: (§2) All animal studies were performed according to the protocols approved by the Animal Welfare Ethics Committee of Shanghai Fourth People’s Hospital. Six to eight-week-old female BALB/c nude mice were purchased from Beijing Vital River Laboratory Animal Technology Co., Ltd. To establish cell-derived xenograft (CDX) models, the mice were implanted subcutaneously in the flanks with 5 × 10^6 U87MG cells in PBS containing 50% Matrigel. HNSCC cell lines (FaDu, CAL27, and CNE2) were inoculated subcutaneously on the right flanks of nude mice. The diameter of each tumor was determined and documented every 2–3 days. When the tumor reached 300–400 mm^3, the mice were used for the imaging study. The U87MG tumor-bearing mice were used to study the in vivo targeting, biodistribution, and optimal FI time window of [^68Ga]Ga-FAP-2286-ICG. HNSCC tumor-bearing mice were used to evaluate the feasibility of [^68Ga]Ga-FAP-2286-ICG for tumor localization and guided surgical resection of HNSCC tumors.
(§3) PET/CT imaging was performed in U87MG tumor-bearing mice to assess the tumor-targeting efficiency and biodistribution of [^68Ga]Ga-FAP-2286-ICG in vivo. The mice were injected with 10 MBq (1 nmol) of [^68Ga]Ga-FAP-2286-ICG through the tail vein, and images were performed at 30, 60, and 90 min after injection. The blocking group was pre-injected with the 50-fold molar excess of non-radiolabeled precursor 1 h in advance.

U87MG xenografts [5] = test: in vivo; type: in vivo, mice; details: for SUVmax of the tumor: U87MG tumor-bearing mice, 10 MBq (1 nmol) i.v.
Method: as §2, §3

[6] = type: physicochemical; details: pH 7.4
Method: The octanol-water partition coefficient of [^68Ga]Ga-FAP-2286-ICG was detected by mixing 10 μL of freshly prepared [^68Ga]Ga-FAP-2286-ICG with 490 μL of PBS (0.1 M, pH 7.4) and 500 μL of n-octanol in a centrifuge tube. The mixture was vortexed for 3 min and centrifuged at 3,000 × rpm for 5 min for layer separation. An aliquot of the aqueous and n-octanol layers was separately collected and measured by γ counter (GC-2101, PET Co., Ltd). Log p values were calculated using the formula: log P = log(total counts in octanol/total counts in PBS).

BALB/c mice = test: Toxicity study in BALB/c mice; type: in vivo
Method: The BALB/c mice were sacrificed and collected from the heart, liver, spleen, lung, and kidney to determine toxicity with hematoxylin and eosin (H&E) staining. The serum was collected to measure the levels of aspartate aminotransferase (AST), alanine aminotransferase (ALT), and blood urea nitrogen (UREA). Body weight was recorded every 5 days up to 20 days postinjection. The mice with intravenous injections of saline served as a control group.

U87MG cells [7] = test: Cellular uptake study (radioactivity, γ-counter); type: cell-based, human
Method: as §1

in vitro = in vitro ADME
Method: The radiochemical purity (RCP) of [^68Ga]Ga-FAP-2286-ICG was assessed using radio instant thin-layer chromatography (Radio-iTLC). Glass microfiber chromatography paper impregnated with a silica gel served as the stationary phase and methanol and 0.25 M sodium acetate (1:1, v/v) as the mobile phase.
The in vitro stability of [^68Ga]Ga-FAP-2286-ICG was assessed by co-culture with 0.01 M PBS and FBS at a concentration of 10% (w/w), respectively, and the mixtures were incubated at 37°C for 0.5, 1, and 2 h.

NIR-I fluorescence emission peak ([4]; excitation 770 nm, 790-860 nm): 808 nm
absorption peak ([4]; spectra 600-1100 nm): 779 nm
SMILES: CC1(C)C(/C=C/C=C/C=C/C=C2\N(CCCCS(=O)(=O)O)c3ccc4ccccc4c3C2(C)C)=[N+](CCCCS(=O)(=O)[O-])c2ccc3ccccc3c21 [ICG, indocyanine green]
fluorescent signal retained by cells (U87MG cells [1]): 3.13×10^13 ± 2.21×10^12 p/sec/cm^2/sr/[μW/cm^2]
clinically safe dose [2]: 5 mg/kg
fluorescence signal in the tumor site (U87MG xenografts [3]): no fluorescence signals in the tumor site

SMILES: CCCCCC(=O)N[C@H]1CSCc2cc(CSCCNC(=O)[C@H](CCCCNC(=O)CCCCCN3/C(=C/C=C/C=C/C=C/C4=[N+](CCCCS(=O)(=O)[O-])c5ccc6ccccc6c5C4(C)C)C(C)(C)c4c3ccc3ccccc43)NC(=O)CN3CCN(CC(=O)O)CCN(CC(=O)O)CCN(CC(=O)O)CC3)cc(c2)CSC[C@@H](C(=O)O)NC(=O)[C@H](Cc2ccccc2)NC(=O)[C@H](CCC(N)=O)NC(=O)[C@H]([C@@H](C)O)NC(=O)[C@@H]2CCCN2C(=O)[C@@H]2CCCN2C1=O [[^68Ga]Ga-FAP-2286-ICG, metal not drawn]
SUV (in vivo): 0.18 ± 0.07 SUV
SUVmax of the tumor, blocking group (U87MG xenografts [5]; 60 min p.i., 50-fold molar excess of non-radiolabeled precursor pre-injected 1 h in advance, n = 3): 0.17 ± 0.01
SUVmax of the tumor (U87MG xenografts [5]; 30 min, n = 3): 0.57 ± 0.10
SUVmax of the tumor (U87MG xenografts [5]; 90 min, n = 3): 0.58 ± 0.23
route of elimination (PET/CT) (U87MG xenografts [5]; mouse, in vivo): mainly eliminated through liver metabolism and kidney excretion
partition coefficient log P [6]: −1.20 ± 0.18
acute toxicity (BALB/c mice; BALB/c mice, 3-week period, n = 3): no evident signs of acute toxicity
serum concentrations of AST, ALT and UREA versus control group (BALB/c mice; BALB/c mice, 3 weeks after injection, saline control, n = 3): did not exhibit significant changes
pathological abnormalities in major organs (H&E) (BALB/c mice; mouse, in vivo): No significant pathological abnormalities
cellular uptake (U87MG cells [7]; 0.74 MBq, 37°C, 60 min, five replicate wells): 12.00% ± 1.73 %ID
cellular uptake, blocked (U87MG cells [7]; 60 min, 100-fold excess of non-radiolabeled precursor): 6.88% ± 0.37 %ID
cellular uptake of [68Ga]Ga-FAP-2286-ICG compared to [68Ga]Ga-FAP-2286 (U87MG cells [7]; 2 h incubation, p = 0.1945): no statistically significant difference
RCP after incubation in PBS (in vitro): greater than 85%
remaining at 2 h (in vitro; serum): > 85%
